Results: paper PMC12627007, “HIV nucleocapsid proteins as targets for novel 1,2-benzisothiazol-3(2H)-one benzenesulfonamides: synthesis and antiretroviral activity” (Frontiers in Microbiology, 2025)
Like-named read-outs stand apart in the source and are kept apart here.

Experiments:
Format in all cases: cell-based
[1] = test system: cell-free HIV-1; experiment: Virucidal activity against cell-free HIV-1 (Reed-Muench titration); conditions: 0 °C; compound 6 80 μM, AMPH-B 100 μM
Protocol: (§1) Cell-free, high-titre HIV-1 and HIV-2 stock solutions were exposed to the test compounds for 2 h at 0 °C or 37 °C. At the end of incubation, residual infectivity was determined using the Reed–Muench end-point titration method, as described below.
(§2) Titration was performed in C8166 cells using the standard limiting dilution method (dilution 1:2, four replica wells/dilution) in 96-well plates.

[2] = test system: HIV-1 IIIB strain; experiment: microbe, parasite or virus in culture; conditions: for EC50: Human immunodeficiency virus 1, IIIB; for Selectivity Index (SI = CC50/EC50) HIV-1: IIIB strain, in round brackets
Protocol: (§3) HIV-1IIIB and HIV-2 CBL-20 strains were obtained from the supernatants of persistently infected H9/IIIB and CEM cells, respectively. HIV-1 and HIV-2 stock solutions had titres of 4.5 × 10^7 and 1.4 × 10^6 50% cell culture infectious doses (CCID50)/ml, respectively. […] The K103R + V179D + P225H mutant (EFVR) was derived from an IIIB strain passaged in MT-4 cells in the presence of Efavirenz (up to 2 μM). N119, A17 and EFV^R stock solutions had titres of 1.2 × 10^8, 2.1 × 10^7, and 4.0 × 10^7 CCID50/ml, respectively.
(§4) The activity of the test compounds against the replication of HIV-1 wt and mutant strains (N119, A17, EFV^R, AZT^R, MDR, SAQ^R) and HIV-2 wt in acutely infected cells was based on the inhibition of virus-induced cytopathogenicity in MT-4 and C8166 cells, respectively. Briefly, 50 μL of culture medium containing 1 × 10^4 cells was added to each well of flat-bottom microtitre trays containing 50 μL of culture medium with or without different serial concentrations of test compounds. Then, 20 μL of an HIV suspension (containing the appropriate amount of CCID50 required to cause complete cytopathogenicity on day 4, final multiplicity of infection [m.o.i.] 0.01) was added.

[3] = test system: cell-free HIV-2; experiment: Virucidal activity against cell-free HIV-2 (Reed-Muench titration); conditions: 0 °C; compound 6 80 μM, AMPH-B 100 μM
Protocol: as §1, §2

[4] = test system: HIV-2 CBL-20 strain; experiment: Inhibition of HIV-2-induced cytopathogenicity in C8166 cells (MTT)
Protocol: as §3, §4

[5] = test system: HIV-1 MDR (74V, 41L, 106A, 215Y); experiment: Inhibition of virus-induced cytopathogenicity in MT-4 cells, NRTI-resistant mutant MDR; conditions: for EC50: Human immunodeficiency virus 1, MT4, read-out: EC50 MDR; for Selectivity Index (SI = CC50/EC50) MDR: in round brackets
Protocol: as §3, §4

[6] = test system: HIV-1 A17 (K103N + Y181C); experiment: Inhibition of virus-induced cytopathogenicity in MT-4 cells, NNRTI-resistant mutant A17; conditions: for EC50: Human immunodeficiency virus 1, MT4, read-out: EC50 A17; for Selectivity Index (SI = CC50/EC50) A17: in round brackets
Protocol: as §3, §4

[7] = test system: HIV-1 N119 (Y181C); experiment: Inhibition of virus-induced cytopathogenicity in MT-4 cells, NNRTI-resistant mutant N119; conditions: for EC50: Human immunodeficiency virus 1, MT4, read-out: EC50 N119; for Selectivity Index (SI = CC50/EC50) N119: in round brackets
Protocol: as §3, §4

[8] = test system: HIV-1 SAQR (L10F, G48V, L90M); experiment: Inhibition of virus-induced cytopathogenicity in MT-4 cells, PRI-resistant mutant SAQR; conditions: for EC50: Human immunodeficiency virus 1, MT4, read-out: EC50 SAQR; for Selectivity Index (SI = CC50/EC50) SAQR: in round brackets
Protocol: as §3, §4

[9] = test system: HIV-1 EFVR (K103R + V179D + P225H); experiment: Inhibition of virus-induced cytopathogenicity in MT-4 cells, NNRTI-resistant mutant EFVR; conditions: for EC50: Human immunodeficiency virus 1, MT4, read-out: EC50 EFVR; for Selectivity Index (SI = CC50/EC50) EFVR: in round brackets
Protocol: as §3, §4

[10] = Cytotoxicity in mock-infected MT-4 cells (MTT method); conditions: human
Protocol: as §4, with “added. After incubation at 37 °C, cell viability was determined using the […] (MTT) method ([Pauwels et al., 1988]). The cytotoxicity of the test compounds was evaluated in parallel with their antiviral activity through the viability of mock-infected, treated cells, as monitored by the MTT method and described elsewhere ([Morellet et al., 1994]).” for “added.”

[11] = test system: HIV-1 AZTR (67N, 70R, 215F, 219Q); experiment: Inhibition of virus-induced cytopathogenicity in MT-4 cells, NRTI-resistant mutant AZTR; conditions: for EC50: Human immunodeficiency virus 1, MT4, read-out: EC50 AZTR; for Selectivity Index (SI = CC50/EC50) AZTR: in round brackets
Protocol: as §3, §4

Structure (SMILES) | EC50 [5] | EC50 [6] | EC50 [7] | EC50 [8] | EC50 [9] | EC50 ([2]; MT4, read-out: EC50 HIV-1) | EC50 [11] | Selectivity Index (SI = CC50/EC50) MDR [5] | Selectivity Index (SI = CC50/EC50) A17 [6] | Selectivity Index (SI = CC50/EC50) SAQR [8] | Selectivity Index (SI = CC50/EC50) EFVR [9] | CC50 at 4 days [10] | Selectivity Index (SI = CC50/EC50) AZTR [11] | further results
C[C@@H]1[C@H](O)[C@@H](C)/C=C/C=C/C=C/C=C/C=C/C=C/C=C/[C@H](O[C@@H]2O[C@H](C)[C@@H](O)[C@H](N)[C@@H]2O)C[C@@H]2O[C@](O)(C[C@@H](O)C[C@@H](O)[C@H](O)CC[C@@H](O)C[C@@H](O)CC(=O)O[C@H]1C)C[C@H](O)[C@H]2C(=O)O [AMPH-B, Amphotericin B, reference compound] |  |  |  |  |  |  |  |  |  |  |  |  |  | Effect on HIV-1 infectivity, incubation at 0 °C [1]: still able to reduce it by a high percentage; EC50 ([2]; MT4, read-out: EC50 HIV-1 (Table 2)): 6 ± 3 µM; Effect on HIV-2 infectivity, incubation at 0 °C [3]: more than 1 log10; EC50 ([4]; Human immunodeficiency virus 2, C8166, read-out: EC50 HIV-2 (Table 2)): 2 ± 0.3 µM
Cc1cn([C@H]2C[C@H](N=[N+]=[N-])[C@@H](CO)O2)c(=O)[nH]c1=O [AZT, azidothymidine, reference compound] | 0.2 ± 0.07 µM | 0.01 ± 0.003 µM | 0.02 ± 0.001 µM | 0.01 ± 0.005 µM | 0.01 ± 0.002 µM | 0.01 ± 0.003 µM | 0.2 ± 0.05 µM |  |  |  |  |  |  | CC50 ([10]; MT-4, MTT method): ≥ 20 µM; EC50 ([4]; Human immunodeficiency virus 2, C8166, read-out: EC50 HIV-2): 0.008 ± 0.001 µM
O=c1c2cc(Cl)ccc2sn1NS(=O)(=O)c1ccccc1Cl [Compound 18, 2-Chloro-N-(5-chloro-3-oxo-1,2-benzisothiazol-2(3H)-yl)benzenesulfonamide] | 16 ± 2 µM | 20 ± 4 µM | 14 ± 1 µM | 15 ± 3 µM | 7 ± 2 µM | 16 ± 3 µM | 12 ± 2 µM | > 6 | > 5 | > 6 | > 14 | > 100 µM | > 8 | Selectivity Index (SI = CC50/EC50) N119 [7]: > 5; Selectivity Index (SI = CC50/EC50) HIV-1 [2]: > 6
O=c1c2ccccc2sn1N(S(=O)(=O)c1ccccc1)S(=O)(=O)c1ccccc1 [Compound 20, N-(3-oxo-1,2-benzisothiazol-2(3H)-yl)-N-(phenylsulfonyl)benzenesulfonamide] | 19 ± 1 µM | 25 ± 2 µM | 23 ± 1 µM | 25 ± 3 µM | 22 ± 1 µM | 22 ± 3.5 µM | 20 ± 2 µM | > 5 | > 4 | > 4 | > 4 | > 100 µM | > 5 | 
Cc1ccc(S(=O)(=O)N(n2sc3ccccc3c2=O)S(=O)(=O)c2ccc(C)cc2)cc1 [Compound 21, 4-Methyl-N-[(4-methylphenyl)sulfonyl]-N-(3-oxo-1,2-benzisothiazol-2(3H)-yl)benzenesulfonamide] | 63 µM | 58 µM | 44 µM | 63 µM | 70 µM | 76 µM | 70 µM |  |  |  |  | > 100 µM |  | 
O=c1c2ccccc2sn1N(S(=O)(=O)c1ccc([N+](=O)[O-])cc1)S(=O)(=O)c1ccc([N+](=O)[O-])cc1 [Compound 22, 4-Nitro-N-[(4-nitrophenyl)sulfonyl]-N-(3-oxo-1,2-benzisothiazol-2(3H)-yl)benzenesulfonamide] | 25 µM | 20 µM | 20 µM | 23 µM | 21 µM | 21 µM | 24 µM | > 4 | > 5 | > 4 | > 4 |  | > 4 | Selectivity Index (SI = CC50/EC50) N119 [7]: > 5; Selectivity Index (SI = CC50/EC50) HIV-1 [2]: > 4; CC50 at 4 days ([10]; MT-4, MTT method): > 100 µM
O=c1c2ccccc2sn1N(S(=O)(=O)c1ccc(F)cc1)S(=O)(=O)c1ccc(F)cc1 [Compound 23, 4-Fluoro-N-[(4-fluorolphenyl)sulfonyl]-N-(3-oxo-1,2-benzisothiazol-2(3H)-yl)benzenesulfonamide] | 25 µM | 24 µM | 23 ± 1 µM | 22 µM | 25 µM | 26 ± 2 µM | 22 µM |  |  |  |  | 36 ± 2.5 µM |  | 
O=c1c2ccccc2sn1N(S(=O)(=O)c1ccc(Cl)cc1)S(=O)(=O)c1ccc(Cl)cc1 [Compound 24, 4-Chloro-N-[(4-chlorophenyl)sulfonyl]-N-(3-oxo-1,2-benzisothiazol-2(3H)-yl)benzenesulfonamide] | 64 µM | 56 µM | 29 ± 1 µM | 63 µM | 65 µM | 71 ± 6 µM | 71 µM |  |  |  |  | > 100 µM |  | 
CC(C)(C)NC(=O)[C@@H]1C[C@@H]2CCCC[C@@H]2CN1C[C@@H](O)[C@H](Cc1ccccc1)NC(=O)[C@H](CC(N)=O)NC(=O)c1ccc2ccccc2n1 [SAQ, saquinavir, reference compound] | 0.02 ± 0.007 µM | 0.01 ± 0.002 µM | 0.02 ± 0.001 µM | 0.5 ± 0.1 µM | 0.01 ± 0.005 µM | 0.01 ± 0.001 µM | 0.01 ± 0.005 µM |  |  |  |  |  |  | CC50 ([10]; MT-4, MTT method): ≥ 20 µM
